Legend:
[1] = system: H358 human non-small cell lung cancer cell line; assay: Anti-tumor activity test on in vivo H358 xenograft tumor model; design: species or system Female Balb/c nude mice; conditions: for T/C / TGI: 28 days; for mean tumor volume: 28 days after administration
From the text: Human non-small cell lung cancer H358 was used to investigate the tumor-inhibitory effect of the compound to be tested alone in an in vivo tumor model.
Female Balb/c nude mice were subcutaneously inoculated with the H358 human non-small cell lung cancer cell line, randomly grouped on the 6th day after inoculation according to tumor size and animal body weight, and administered as described below.
Vehicle control group: The administration was started in the afternoon of the grouping day, once a day, and the vehicle (10% DMSO/60% PEG400/30% deionized water) was intragastrically administered at a dose of 0.1 mL/10 g body weight for 28 consecutive days.
Administration group: The administration was started in the afternoon of the grouping day, once a day, and 3 groups were intragastrically administered with compound 1D (10% DMSO/60% PEG400/30% deionized water) at the doses of 1 mg/kg, 3 mg/kg and 10 mg/kg body weight, respectively, for 28 consecutive days.
During the experiment, the mice were weighed twice a week, and the tumor volume was measured (tumor volume was calculated according to the formula of length×width^2/2). The tumor inhibition rate TGI (%) was calculated according to the formula TGI (%)=[(1−mean tumor volume at the end of administration of a treatment group−mean tumor volume at the time of group administration of the treatment group)/(mean tumor volume at the end of treatment of vehicle control group−mean tumor volume at the time of group administration of vehicle control group)]×100%.
The relative tumor volume was calculated as RTV=TVn/TV1×100%
Where TV1 was the tumor volume on the day of group administration, and TVn was the tumor volume on the day of measurement.
Relative tumor proliferation rate (T/C %)=RTVt/RTVc×100%
Where RTVt was the mean relative tumor volume of the treatment group, and RTVc was the mean relative tumor volume of the vehicle control group.

[2] = system: human colon cancer CO-04-0070 subcutaneous xenograft tumor; assay: In vivo pharmacodynamic study on human colon cancer CO-04-0070 subcutaneous xenograft tumor model; design: species or system BALB/c nude mouse; conditions: for Tumor volume (Day 0): Day 0 (at grouping); for Tumor volume (Day 0) / Tumor volume (Day 20) / Tumor weight (Day 20): mean ± SEM, n = 8; for RTV (Day 20) / T/C (%) (Day 20) / T/Cweight / TGI (%) (Day 20) / Tumor volume (Day 20) / Tumor weight (Day 20): Day 20
Method: To evaluate the in vivo efficacy of the compound in the human colon cancer CO-04-0070 subcutaneous xenograft tumor BALB/c nude mouse model.
Each animal was inoculated with a CO-04-0070 FP7 tumor block with a volume of about 30 mm^3 in the right back position. When the mean tumor volume reached 151 mm^3, random grouping was used and the administration was started.
Tumor diameters were measured with vernier calipers twice a week. The calculation formula of tumor volume was: V=0.5a×b^2, wherein a and b represented the long and short diameters of the tumor, respectively.
The anti-tumor efficacy of the compounds was evaluated by TGI (%) or relative tumor proliferation rate T/C (%). Relative tumor proliferation rate T/C (%)=TRTV/CRTV×100% (TRTV: mean RTV of the treatment group; CRTV: mean RTV of the negative control group). The relative tumor volume (RTV) was calculated according to the results of tumor measurement, and the calculation formula was RTV=Vt/V0, wherein V0 was the tumor volume measured at the time of group administration (that is, D0), Vt was the tumor volume at a certain measurement, and the data of TRTV and CRTV were taken on the same day. TGI (%), reflecting the tumor growth inhibition rate.
TGI (%)=[1−(mean tumor volume at the end of administration in a treatment group−mean tumor volume at the beginning of administration in the treatment group)/(mean tumor volume at the end of treatment in vehicle control group−mean tumor volume at the beginning of treatment in vehicle control group)]×100%.
After the experiment, the tumor weight would be detected, and the percentage of T/Cweight would be calculated. Tweight and Cweight represented the tumor weight of the administration group and the vehicle control group, respectively.

[3] = 1 mg/kg intragastric once a day
[4] = 3 mg/kg intragastric once a day
[5] = 10 mg/kg intragastric once a day

C=CC(=O)N1CCN2c3c(c(=O)n(-c4c(C)ccnc4C(C)C)c4c(=O)n(-c5c(N)c(Cl)cc(Cl)c5F)c(C(F)(F)F)cc34)OCC[C@H]2C1 [Compound 1D]
T/C [1, 3]: 51.35% | TGI [1, 3]: 58.78% | mean tumor volume [1, 3]: 341.36 mm^3 | T/C [1, 4]: 27.59% | TGI [1, 4]: 84.17% | mean tumor volume [1, 4]: 199.4 mm^3 | T/C [1, 5]: 5.76% | TGI [1, 5]: 113.19% | mean tumor volume [1, 5]: 37.5 mm^3 | Tumor volume (Day 0) ([2]; 3 mg/kg PO QD × 3 weeks): 151 mm^3 | RTV (Day 20) ([2]; 3 mg/kg PO QD × 3 weeks): 5.32 | T/C (%) (Day 20) ([2]; 3 mg/kg PO QD × 3 weeks): 58.0% | T/Cweight ([2]; 3 mg/kg PO QD × 3 weeks): 61.6% | TGI (%) (Day 20) ([2]; 3 mg/kg PO QD × 3 weeks): 45.4% | Tumor volume (Day 20) ([2]; 3 mg/kg PO QD × 3 weeks): 788 mm^3 | Tumor weight (Day 20) ([2]; 3 mg/kg PO QD × 3 weeks): 0.832 ± 0.102 g | Tumor volume (Day 0) ([2]; 10 mg/kg PO QD × 3 weeks): 151 mm^3 | RTV (Day 20) ([2]; 10 mg/kg PO QD × 3 weeks): 2.43 | T/C (%) (Day 20) ([2]; 10 mg/kg PO QD × 3 weeks): 26.5% | T/Cweight ([2]; 10 mg/kg PO QD × 3 weeks): 30.1% | TGI (%) (Day 20) ([2]; 10 mg/kg PO QD × 3 weeks): 80.5% | Tumor volume (Day 20) ([2]; 10 mg/kg PO QD × 3 weeks): 379 mm^3 | Tumor weight (Day 20) ([2]; 10 mg/kg PO QD × 3 weeks): 0.406 ± 0.095 g | Tumor volume (Day 0) ([2]; 30 mg/kg PO QD × 3 weeks): 151 mm^3 | RTV (Day 20) ([2]; 30 mg/kg PO QD × 3 weeks): 1.02 | T/C (%) (Day 20) ([2]; 30 mg/kg PO QD × 3 weeks): 11.1% | T/Cweight ([2]; 30 mg/kg PO QD × 3 weeks): 12.0% | TGI (%) (Day 20) ([2]; 30 mg/kg PO QD × 3 weeks): 99.9% | Tumor volume (Day 20) ([2]; 30 mg/kg PO QD × 3 weeks): 152 mm^3 | Tumor weight (Day 20) ([2]; 30 mg/kg PO QD × 3 weeks): 0.162 ± 0.023 g
